Source: PMC5578959, “Selective LRRK2 kinase inhibition reduces phosphorylation of endogenous Rab10 and Rab12 in human peripheral mononuclear blood cells” (Scientific Reports, 2017)

What was measured:
LRRK2 A2016T = molecular target: T1, LRRK2 A2016T (Homo sapiens, UniProt Q5S007, A2016T); experiment: Odyssey CLx 96-well ICW assay, LRRK2-Ser935 phosphorylation in transfected HEK293 cells; format: cell-based; details: transiently transfected HEK293 cells, inhibition resistant mutant A2016T, 1 h, mean, n = 3
T1 construct: expressed in transfected cells; host or cells: HEK293
Source text: (§1) Plasmids encoding various LRRK2 and Rab GTPase protein variants were transiently expressed in HEK293 cells using Lipofectamine®2000 according to the manufacturer’s instructions (Thermo Fisher Scientific, US).
(§2) HEK293 cells grown in clear-bottom 96-well plates were transfected with either wild type LRRK2, kinase overactive variant G2019S, inhibition-resistant mutant A2016T or mock, respectively. […] Subsequently, the plates were processed as previously described.

LRRK2 WT = LRRK2 WT (Homo sapiens, UniProt Q5S007); experiment: as above; format: cell-based; details: transiently transfected HEK293 cells, 1 h, mean, n = 3
Source text: as §1, §2

LRRK2 G2019S = molecular target: T2, LRRK2 G2019S (Homo sapiens, UniProt Q5S007, G2019S); experiment: as above; format: cell-based; details: transiently transfected HEK293 cells, overactive variant G2019S, 1 h, mean, n = 3
T2 construct: expressed in transfected cells; host or cells: HEK293
Source text: as §1, §2

COT = test system: T3, COT; experiment: KiNativ profiling in human PBMCs; format: binding; details: ATP Loop
T3 construct: purchased ActivX Technologies (KiNativ)

PCTAIRE2, PCTAIRE3 = experiment: KiNativ profiling in human PBMCs; format: binding; details: Lys1
CK2a1 = test system: T4, CK2a1; experiment: KiNativ profiling in human PBMCs; format: binding; details: Protein Kinase Domain
T4 construct: purchased ActivX Technologies (KiNativ)

p70S6Kb = test system: T5, p70S6Kb; experiment: KiNativ profiling in human PBMCs; format: binding; details: Lys2
T5 construct: purchased ActivX Technologies (KiNativ)

LRRK2-pSer935 = molecular target: T6, LRRK2-pSer935 (Homo sapiens, UniProt Q5S007); experiment: Acute inhibition, Western Blot, non-stimulated human PBMCs; format: cell-based
T6 construct: human primary cells expressing endogenous levels of LRRK2; endogenous in cells; host or cells: human PBMCs from healthy donors
Procedure: (§3) HEK293 cells were plated at a density of 1 × 10^6 cells/well in 6-well plates pre-coated for 1 hr at 37 °C with poly-L-lysin. Subsequent to the transient transfection HEK293 cells were harvested using 1 mL cold Phosphate Buffered Saline (PBS) buffer (Invitrogen, California, US) and subsequently centrifuged at 800 g for 2 minutes. Cell pellets were resuspended and solubilized in 100 µL lysis buffer (50 mM Tris hydrochloride, 1 mM magnesium chloride, 1% Triton, 0.1% sodium dodecyl sulfate (SDS), pH 8.0) on ice for 20 minutes and then centrifuged at 20,000 g for 30 minutes at 4 °C. The solubilized crude cell lysate was size mobility separated by SDS-polyacrylamide gel electrophoresis (SDS-PAGE). LRRK2 was separated on a 3–8% Tris-Acetate gel (NuPAGE® Tris-Acetate Mini Gels, Life Technologies, Paisley, UK) and Rab10 and Rab12 were separated using a NuPAGE® Novex 4–12% Bis-Tris Gel (Invitrogen, California, US). An amount of 10 µg total protein was loaded in each well. Proteins were transferred to immobilon-FL PVDF membranes (Millipore, Billerica, US). Membranes were incubated with primary antibodies overnight at 4 °C: mouse monoclonal [N241A/34] anti-LRRK2 antibody (1:2,000; NeuroMab, California, US), rabbit monoclonal [UDD2 10(12)] anti-pS935-LRRK2 antibody (1:1,000; RabMAb®, Abcam, Cambridge, UK), mouse anti-HA monoclonal antibody [clone HA-7] (1:10,000; Santa Cruz Biotechnology, Texas, US), rabbit anti-Rab10-pThr73 polyclonal [#5981] (1:2,000; H. Lundbeck A/S, DK) and rabbit anti-Rab12-Ser106 polyclonal antibody [#5919] (1:5,000; H. Lundbeck A/S, DK). Subsequently, the membranes were washed and incubated with secondary antibodies for 1 hour at room temperature: Anti-rabbit IgG F(c) (GOAT) antibody IRDye® 800CW Conjugated (1:10,000; Rockland Immunochemicals Inc., Gilbertsville, US) and anti-mouse Alexa Fluor® 680 Goat anti-mouse IgM (1:20,000; Life Technologies, Paisley, UK). The proteins were visually detected by infrared imaging using Odyssey CLx (LI-COR, Nebraska, US). Membranes were scanned and band intensities were quantified using the Image Studio version 3.1.4 (LI-COR, Nebraska).
(§4) PBMCs were isolated using the density gradient medium, Lymphoprep™ from Stemcell Technologies (Vancouver, Canada) following their standard protocol. Briefly, 4 ml blood was diluted with 4 ml PBS and applied at the SepMate™ tubes (Stemcell Technologies) and spun at 1200xg for 20 min at RT in the centrifuge without brakes. The PBMC layer was collected and spun at 600xg for 8 min and washed two times in PBS by spinning at 600xg between each wash. After the last wash, the cells were counted and the cellular concentration was adjusted to 50 × 10^6 cells/ml in PBS. Donor samples were treated with the LRRK2 inhibitor PFE-360 for one hour and the cells were hereafter lysed by adding 1/10 volume lysis buffer (5% Triton-X, 5% Digitonin, 10 mM EDTA) containing phosphatase and protease inhibitor cocktail (Roche Diagnostics, Mannheim, Germany). The lysates from human PBMCs were subjected to SDS-PAGE and Western Blotting procedures as described above.

Rab10-pThr73 = experiment: as above; format: cell-based
Procedure: as §3, §4

MAP2K2 = test system: T7, MAP2K2; experiment: KiNativ profiling in human PBMCs; format: binding; details: Lys2
T7 construct: purchased ActivX Technologies (KiNativ)

ITPK1 = test system: T8, ITPK1; experiment: KiNativ profiling in human PBMCs; format: binding; details: ATP
T8 construct: purchased ActivX Technologies (KiNativ)

NEK3 = test system: T9, NEK3; experiment: KiNativ profiling in human PBMCs; format: binding; details: Activation Loop
T9 construct: purchased ActivX Technologies (KiNativ)

MPSK1 = test system: T10, MPSK1; experiment: KiNativ profiling in human PBMCs; format: binding; details: Lys1
T10 construct: purchased ActivX Technologies (KiNativ)

p38b = test system: T11, p38b; experiment: KiNativ profiling in human PBMCs; format: binding; details: Protein Kinase Domain
T11 construct: purchased ActivX Technologies (KiNativ)

[1] = 2 µM, 1hr, non-stimulated PBMCs, n = 6 donors
[2] = non-stimulated human PBMCs, 1 hour, n = 3

T6 sequence (Q5S007 whole entry): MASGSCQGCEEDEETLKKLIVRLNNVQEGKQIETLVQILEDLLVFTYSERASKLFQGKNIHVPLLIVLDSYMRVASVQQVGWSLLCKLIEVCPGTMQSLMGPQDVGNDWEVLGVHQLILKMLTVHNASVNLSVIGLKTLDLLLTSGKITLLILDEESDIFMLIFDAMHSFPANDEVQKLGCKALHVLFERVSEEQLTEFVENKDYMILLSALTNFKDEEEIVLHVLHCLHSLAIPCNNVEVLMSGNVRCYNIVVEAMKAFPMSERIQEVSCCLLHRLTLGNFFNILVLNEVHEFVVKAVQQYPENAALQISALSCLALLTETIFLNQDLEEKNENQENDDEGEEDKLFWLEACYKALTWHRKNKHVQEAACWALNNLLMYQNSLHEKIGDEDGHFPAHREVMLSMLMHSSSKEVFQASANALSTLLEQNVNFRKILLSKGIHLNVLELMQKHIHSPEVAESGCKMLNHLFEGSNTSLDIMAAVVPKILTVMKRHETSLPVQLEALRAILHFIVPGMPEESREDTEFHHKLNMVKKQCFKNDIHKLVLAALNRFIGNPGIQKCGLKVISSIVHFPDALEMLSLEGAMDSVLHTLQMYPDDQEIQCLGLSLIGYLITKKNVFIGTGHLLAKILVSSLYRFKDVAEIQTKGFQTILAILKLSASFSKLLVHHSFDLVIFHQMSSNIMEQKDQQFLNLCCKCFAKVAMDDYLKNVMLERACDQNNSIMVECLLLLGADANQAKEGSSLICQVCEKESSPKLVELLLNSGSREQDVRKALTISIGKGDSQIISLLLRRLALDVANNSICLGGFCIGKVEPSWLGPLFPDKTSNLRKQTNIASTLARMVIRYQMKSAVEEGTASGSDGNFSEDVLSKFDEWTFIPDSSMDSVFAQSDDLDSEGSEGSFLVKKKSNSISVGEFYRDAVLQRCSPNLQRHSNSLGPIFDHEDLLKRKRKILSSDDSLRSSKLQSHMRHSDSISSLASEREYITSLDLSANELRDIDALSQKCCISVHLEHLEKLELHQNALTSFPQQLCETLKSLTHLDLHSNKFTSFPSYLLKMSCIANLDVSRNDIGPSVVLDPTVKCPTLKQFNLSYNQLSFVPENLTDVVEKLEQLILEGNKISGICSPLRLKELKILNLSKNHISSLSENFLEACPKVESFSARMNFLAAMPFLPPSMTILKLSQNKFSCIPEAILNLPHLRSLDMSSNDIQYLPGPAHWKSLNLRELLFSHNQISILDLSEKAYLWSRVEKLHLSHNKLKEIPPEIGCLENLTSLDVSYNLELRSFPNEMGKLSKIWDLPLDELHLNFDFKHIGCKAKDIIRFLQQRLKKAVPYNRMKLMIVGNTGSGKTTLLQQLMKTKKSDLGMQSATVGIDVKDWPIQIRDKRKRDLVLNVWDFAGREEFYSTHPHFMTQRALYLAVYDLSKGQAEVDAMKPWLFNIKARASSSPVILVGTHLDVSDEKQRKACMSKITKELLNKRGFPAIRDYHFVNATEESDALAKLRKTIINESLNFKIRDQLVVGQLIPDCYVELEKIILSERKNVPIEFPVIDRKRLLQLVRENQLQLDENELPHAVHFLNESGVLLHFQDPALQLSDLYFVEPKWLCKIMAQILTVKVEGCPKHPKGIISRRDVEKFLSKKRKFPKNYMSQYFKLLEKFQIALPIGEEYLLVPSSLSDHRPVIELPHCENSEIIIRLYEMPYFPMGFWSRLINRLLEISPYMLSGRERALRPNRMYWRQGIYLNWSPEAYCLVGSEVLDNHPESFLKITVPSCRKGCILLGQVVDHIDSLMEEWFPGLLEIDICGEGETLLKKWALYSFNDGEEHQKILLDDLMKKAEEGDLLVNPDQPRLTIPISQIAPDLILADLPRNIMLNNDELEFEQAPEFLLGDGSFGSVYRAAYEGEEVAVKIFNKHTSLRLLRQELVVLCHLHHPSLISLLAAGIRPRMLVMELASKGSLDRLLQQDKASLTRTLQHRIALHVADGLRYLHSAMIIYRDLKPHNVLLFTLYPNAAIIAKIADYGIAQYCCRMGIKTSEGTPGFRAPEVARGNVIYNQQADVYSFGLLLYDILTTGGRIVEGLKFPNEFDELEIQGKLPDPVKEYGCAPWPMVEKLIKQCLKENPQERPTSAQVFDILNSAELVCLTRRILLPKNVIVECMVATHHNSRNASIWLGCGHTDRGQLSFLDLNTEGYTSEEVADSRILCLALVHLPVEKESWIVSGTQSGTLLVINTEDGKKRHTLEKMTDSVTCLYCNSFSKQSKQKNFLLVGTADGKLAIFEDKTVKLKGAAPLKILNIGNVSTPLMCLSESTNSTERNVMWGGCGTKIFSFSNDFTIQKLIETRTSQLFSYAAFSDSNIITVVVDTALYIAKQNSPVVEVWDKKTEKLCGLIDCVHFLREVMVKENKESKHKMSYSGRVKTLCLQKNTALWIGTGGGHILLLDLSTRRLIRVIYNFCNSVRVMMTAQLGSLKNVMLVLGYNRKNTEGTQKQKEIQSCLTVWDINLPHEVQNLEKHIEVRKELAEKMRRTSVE
T2 sequence (Q5S007 whole entry G2019S): as the sequence (Q5S007 whole entry) above, with G2019S counted along it
T1 sequence (Q5S007 whole entry A2016T): as the sequence (Q5S007 whole entry) above, with A2016T counted along it
LRRK2 WT, sequence (Q5S007 whole entry): as the sequence (Q5S007 whole entry) above

`Cc1cccc(-c2cc(Nc3ccn(C)n3)nc3[nH]cc(C#N)c23)c1` [Lu AF58786] showed an IC50 (LRRK2 A2016T) of 93 nM, an IC50 (LRRK2 WT) of 12 nM and an IC50 (LRRK2 G2019S) of 19 nM.
With `Cn1cc(-c2c[nH]c3ncnc(N4CCOCC4)c23)cc1C#N` [PFE-360] the “% Inhibition” value (COT; 0.1µM) was 26.3%, the “% Inhibition” value (COT; 1µM) was 7.7% and the “% Inhibition” value (PCTAIRE2, PCTAIRE3; 0.1µM) was -34%. For the same compound, the “% Inhibition” value (PCTAIRE2, PCTAIRE3; 1µM) was 11.6%, the “% Inhibition” value (CK2a1; 0.1µM) was -27.7% and the “% Inhibition” value (CK2a1; 1µM) was -26.5%. For the same compound, the “% Inhibition” value (p70S6Kb; 0.1µM) was -6.9%, the “% Inhibition” value (p70S6Kb; 1µM) was 10.8% and the LRRK2 inhibition (LRRK2-pSer935; 2 µM, 1hr, non-stimulated PBMCs) was “full LRRK2 inhibition”. For the same compound, the “LRRK2-pSer935 levels vs PBS-treated PBMC samples” value (LRRK2-pSer935; [1]) was “significantly lower”, the IC50 (LRRK2-pSer935; [2]) was 24 nM and the “pIC50 ± SEM, LRRK2-pSer935” value (LRRK2-pSer935; [2]) was 7.6 ± 0.3 (n = 3). For the same compound, the “Rab10-pThr73 levels vs PBS-treated PBMC samples” value (Rab10-pThr73; [1]) was “significantly lower”, the IC50 (Rab10-pThr73; [2]) was 12 nM and the “pIC50 ± SEM, Rab10-pThr73” value (Rab10-pThr73; [2]) was 7.9 ± 0.3 (n = 3). The “% Inhibition” value (MAP2K2; 0.1µM) was -11.4%, the “% Inhibition” value (MAP2K2; 1µM) was 20.4% and the “% Inhibition” value (ITPK1; 0.1µM) was -34%. The “% Inhibition” value (ITPK1; 1µM) was -34.7%, the “% Inhibition” value (NEK3; 0.1µM) was -10.8% and the “% Inhibition” value (NEK3; 1µM) was 1.2%. The “% Inhibition” value (MPSK1; 0.1µM) was 5.5%, the “% Inhibition” value (MPSK1; 1µM) was -27.6% and the “% Inhibition” value (p38b; 0.1µM) was 3.5%. The “% Inhibition” value (p38b; 1µM) was 7%.
